# Assay results taken from patent US9149478B2, “Diabetes therapy” (Boehringer Ingelheim International GmbH, priority 2010, dated 2015).
# Tests used:
# [1] = Pharmacokinetic profile of linagliptin (general statement); conditions: in vivo
# [2] = Pharmacokinetics of BI 1356 after multiple oral doses once daily for 12 days in patients with type 2 diabetes; conditions: for feτ,ss: steady state (Day 12); for feτ,ss / fe0-24: gMean (gCV); for fe0-24: fraction excreted in urine
# [3] = tested on: non-obese-diabetic (NOD) mice; test: Onset of diabetes and stereological pancreas assessment in NOD mice over 60 days; type: in vivo, mouse; conditions: female NOD mice
# Text: Though reduced pancreatic T-cell migration and altered cytokine production is considered important players for the onset of insulinitis the exact mechanism and effects on the pancreatic cell pool is still incompletely understood.
# Bi-weekly plasma samples are obtained to determine onset of diabetes (BG>11 mmol/l).
# [4] = Safety and tolerability in people with type 2 diabetes
# [5] = in vivo; cited from earlier work
Compound,half-life [1],"feτ,ss ([2]; 1 mg oral once daily)","feτ,ss ([2]; 2.5 mg oral once daily)",fe0-24 ([2]; 2.5 mg oral once daily),"feτ,ss ([2]; 5 mg oral once daily)",fe0-24 ([2]; 5 mg oral once daily),"feτ,ss ([2]; 10 mg oral once daily)",fe0-24 ([2]; 10 mg oral once daily),"mean accumulation ratio RA,AUC ([2]; doses above 1 mg, oral once daily)",excreted via the kidney ([2]; therapeutic oral dose levels),route of excretion ([2]; therapeutic oral dose levels),"incidence of diabetes (BG>11 mmol/l) at the end of the study period ([3]; 0.083 g linagliptin/kg chow (3-10 mg/kg p.o.), 60 days)","beta cell mass (insulin immunoreactivity) ([3]; linagliptin in chow, 60 days, stereology)","active plasma GLP-1 at termination ([3]; linagliptin in chow, versus control)",safety and tolerability [4],duration of action [5]
"CC#CCn1c(N2CCC[C@@H](N)C2)nc2c1c(=O)n(Cc1nc(C)c3ccccc3n1)c(=O)n2C [BI 1356, 1-[(4-methyl-quinazolin-2-yl)methyl]-3-methyl-7-(2-butyn-1-yl)-8-(3-(R)-amino-piperidin-1-yl)-xanthine]",≤ 72 h,3.34 (38.3) %,3.06 (45.1) %,0.139 (51.2) %,6.27 (42.2) %,0.453 (125) %,3.22 (34.2) %,0.919 (115) %,≤ 1.4,< 7 % of the administered oral dose,primarily excreted unchanged via the bile,9 out of 30,0.48 ± 0.09 mg,higher,placebo-like safety and tolerability,–
N^εB29-(N^α-(ω-carboxypentadecanoyl)-L-γ-glutamyl) des(B30) human insulin [Insulin degludec],–,–,–,–,–,–,–,–,–,–,–,–,–,–,–,more than 24 hours
